ChEMBL document CHEMBL3046469, “Fungicidal Activities of 2-(Substituted Phenoxymethyl)phenyl-2-methoxyiminoacaetamide Derivatives” (1998)

Tests used:
Assay type in all cases: functional
Pyricularia oryzae [1] = assay: Fungicidal activity against Magnaporthe oryzae assessed as rice blast disease control at 125 ppm foliar application for 24 hr after inoculation at 27 +/- 2 degC measured after 5 days by curative manner
Pyricularia oryzae [2] = assay: Fungicidal activity against Magnaporthe oryzae assessed as rice blast disease control at 125 ppm foliar application for 24 hr before inoculation at 27 +/- 2 degC measured after 5 days by preventive manner
Podosphaera fuliginea [3] = assay: Fungicidal activity against Podosphaera fuliginea assessed as cucumber powdery mildew control at 31.3 ppm foliar application 24 hr before inoculation at 23 +/- 2 degC by preventive manner
[4] = system: Blumeria graminis f. sp. tritici; assay: Fungicidal activity against Blumeria graminis f. sp. tritici assessed as wheat powdery mildew disease control at 125 ppm foliar application for 48 hr after inoculation by curative manner
Podosphaera fuliginea [5] = assay: Fungicidal activity against Podosphaera fuliginea assessed as cucumber powdery mildew control at 125 ppm foliar application 24 hr after inoculation at 23 +/- 2 degC by curative manner
[6] = system: Blumeria graminis f. sp. tritici; assay: Fungicidal activity against Blumeria graminis f. sp. tritici assessed as wheat powdery mildew disease control at 125 ppm foliar application for 48 hr before inoculation by preventive manner
Botrytis cinerea [7] = assay: Fungicidal activity against Botryotinia fuckeliana assessed as cucumber gray mold disease control at 125 ppm foliar application […] at 22 +/- 2 degC by curative manner
Botrytis cinerea [8] = assay: Fungicidal activity against Botryotinia fuckeliana assessed as cucumber gray mold disease control at 125 ppm foliar application […] at 22 +/- 2 degC by preventive manner
Pyricularia oryzae [9] = assay: Fungicidal activity against Magnaporthe oryzae assessed as rice blast disease control at 31.3 ppm foliar application for 24 hr before inoculation at 27 +/- 2 degC measured after 5 days by preventive manner
Podosphaera fuliginea [10] = assay: Fungicidal activity against Podosphaera fuliginea assessed as cucumber powdery mildew control at 7.8 ppm foliar application 24 hr before inoculation at 23 +/- 2 degC by preventive manner
Botrytis cinerea [11] = assay: Fungicidal activity against Botryotinia fuckeliana assessed as cucumber gray mold disease control at 7.8 ppm foliar application […] at 22 +/- 2 degC by preventive manner
[12] = system: Blumeria graminis f. sp. tritici; assay: Fungicidal activity against Blumeria graminis f. sp. tritici assessed as wheat powdery mildew disease control at 7.8 ppm foliar application 48 24 hr before inoculation by preventive manner
Thanatephorus cucumeris [13] = assay: Fungicidal activity against Thanatephorus cucumeris assessed as rice sheath blight disease control at 31.3 ppm foliar application for 24 hr before inoculation at 26 +/- 2 degC measured after 5 days by preventive manner
[14] = system: Pseudoperonospora cubensis; assay: Fungicidal activity against Pseudoperonospora cubensis assessed as cucumber downy mildew disease control at 31.3 ppm foliar application 24 hr before inoculation onto the abaxial(untreated) surface of leaf by preventive manner
[15] = system: Pseudoperonospora cubensis; assay: Fungicidal activity against Pseudoperonospora cubensis assessed as cucumber downy mildew disease control at 31.3 ppm foliar application 24 hr before inoculation onto the adaxial(treated) surface of leaf by preventive manner
[16] = system: Blumeria graminis f. sp. tritici; assay: Fungicidal activity against Blumeria graminis f. sp. tritici assessed as wheat powdery mildew disease control at 31.3 ppm foliar application for 48 hr before inoculation by preventive manner
Thanatephorus cucumeris [17] = assay: Fungicidal activity against Thanatephorus cucumeris assessed as rice sheath blight disease control at 125 ppm foliar application for 24 hr before inoculation at 26 +/- 2 degC measured after 5 days by preventive manner
[18] = system: Pseudoperonospora cubensis; assay: Fungicidal activity against Pseudoperonospora cubensis assessed as cucumber downy mildew disease control at 125 ppm foliar application 24 hr before inoculation onto the abaxial(untreated) surface of leaf by preventive manner
[19] = system: Pseudoperonospora cubensis; assay: Fungicidal activity against Pseudoperonospora cubensis assessed as cucumber downy mildew disease control at 125 ppm foliar application 24 hr before inoculation onto the adaxial(treated) surface of leaf by preventive manner
Thanatephorus cucumeris [20] = assay: Fungicidal activity against Thanatephorus cucumeris assessed as rice sheath blight disease control at 7.8 ppm foliar application for 24 hr before inoculation at 26 +/- 2 degC measured after 5 days by preventive manner
Botrytis cinerea [21] = assay: Fungicidal activity against Botryotinia fuckeliana assessed as cucumber gray mold disease control at 2 ppm foliar application […] at 22 +/- 2 degC by preventive manner
[22] = system: Blumeria graminis f. sp. tritici; assay: Fungicidal activity against Blumeria graminis f. sp. tritici assessed as wheat powdery mildew disease control at 2 ppm foliar application for 48 hr before inoculation by preventive manner
[23] = system: Pseudoperonospora cubensis; assay: Fungicidal activity against Pseudoperonospora cubensis assessed as cucumber downy mildew disease control at 2 ppm foliar application 24 hr before inoculation onto the adaxial(treated) surface of leaf by preventive manner
Podosphaera fuliginea [24] = assay: Fungicidal activity against Podosphaera fuliginea assessed as cucumber powdery mildew control at 125 ppm foliar application 24 hr before inoculation at 23 +/- 2 degC by preventive manner
Pyricularia oryzae [25] = assay: Fungicidal activity against Magnaporthe oryzae assessed as rice blast disease control at 2 ppm foliar application for 24 hr before inoculation at 27 +/- 2 degC measured after 5 days by preventive manner
[26] = system: Pseudoperonospora cubensis; assay: Fungicidal activity against Pseudoperonospora cubensis assessed as cucumber downy mildew disease control at 7.8 ppm foliar application 24 hr before inoculation onto the adaxial(treated) surface of leaf by preventive manner
Botrytis cinerea [27] = assay: Fungicidal activity against Botryotinia fuckeliana assessed as cucumber gray mold disease control at 31.3 ppm foliar application […] at 22 +/- 2 degC by preventive manner
Pyricularia oryzae [28] = assay: Fungicidal activity against Magnaporthe oryzae assessed as rice blast disease control at 7.8 ppm foliar application for 24 hr before inoculation at 27 +/- 2 degC measured after 5 days by preventive manner

In the case of CNC(=O)/C(=N\OC)c1ccccc1COc1ccc(-c2ccccc2)cc1, the Activity (Pyricularia oryzae [1]) is reported as <90%, the Activity (Pyricularia oryzae [2]) is reported as <90% and the Activity (Podosphaera fuliginea [3]) is reported as 90%. For the same molecule, the Activity [4] was 90%, the Activity (Podosphaera fuliginea [5]) was <90% and the Activity [6] was <90%. For the same molecule, the Activity (Botrytis cinerea [7]) was <90% and the Activity (Botrytis cinerea [8]) was <90%.
In the case of CNC(=O)/C(=N\OC)c1ccccc1COc1cccc(OC(C)C)c1, the Activity (Pyricularia oryzae [1]) is reported as <90%, the Activity (Pyricularia oryzae [2]) is reported as 90% and the Activity (Podosphaera fuliginea [3]) is reported as 90%. For the same molecule, the Activity [4] was 90%, the Activity (Podosphaera fuliginea [5]) was 90% and the Activity [6] was <90%. For the same molecule, the Activity (Botrytis cinerea [7]) was <90% and the Activity (Botrytis cinerea [8]) was 90%.
With CNC(=O)/C(=N/OC)c1ccccc1COc1ccc(OC(C)C)cc1 the Activity (Pyricularia oryzae [9]) was 90%, the Activity (Podosphaera fuliginea [10]) was 90% and the Activity (Botrytis cinerea [11]) was 90%. The Activity [12] was 90%, the Activity (Thanatephorus cucumeris [13]) was 90% and the Activity [14] was 90%. For the same molecule, the Activity [15] was 90%.
CNC(=O)/C(=N/OC)c1ccccc1COc1ccc(F)c(F)c1 was tested, and the Activity (Pyricularia oryzae [9]) was 90%, the Activity (Podosphaera fuliginea [3]) was 90% and the Activity (Botrytis cinerea [11]) was 90%. The Activity [16] was 90%, the Activity (Thanatephorus cucumeris [17]) was <90% and the Activity [18] was <90%. The Activity [19] was <90%.
In the case of CNC(=O)/C(=N/OC)c1ccccc1COc1ccc(C)cc1C, the Activity (Thanatephorus cucumeris [20]) is reported as 90%, the Activity (Pyricularia oryzae [2]) is reported as 90% and the Activity (Podosphaera fuliginea [10]) is reported as 90%. The Activity (Botrytis cinerea [21]) was 90%, the Activity [22] was 90% and the Activity [18] was 90%. The Activity [23] was 90%.
For CO/N=C(/C(=O)NN)c1ccccc1COc1cc(C)ccc1C, the Activity (Pyricularia oryzae [1]) was <90%, the Activity (Pyricularia oryzae [2]) was 90% and the Activity (Podosphaera fuliginea [5]) was <90%. The Activity (Podosphaera fuliginea [24]) was 90% and the Activity (Botrytis cinerea [8]) was <90%.
In the case of CNC(=O)/C(=N\OC)c1ccccc1COc1ccccc1, the Activity (Pyricularia oryzae [1]) is reported as <90%, the Activity (Pyricularia oryzae [2]) is reported as <90% and the Activity [4] is reported as <90%. For the same molecule, the Activity (Podosphaera fuliginea [5]) was <90%, the Activity (Podosphaera fuliginea [24]) was 90% and the Activity [6] was 90%. The Activity (Botrytis cinerea [7]) was <90% and the Activity (Botrytis cinerea [8]) was <90%.
Work on CNC(=O)/C(=N/OC)c1ccccc1COc1c(Cl)ccc(Cl)c1Cl yielded an Activity (Pyricularia oryzae [2]) of 90%, an Activity (Podosphaera fuliginea [24]) of 90% and an Activity [6] of 90%. For the same molecule, the Activity (Thanatephorus cucumeris [17]) was <90%, the Activity [18] was <90% and the Activity [15] was 90%. For the same molecule, the Activity (Botrytis cinerea [8]) was 90%.
CNC(=O)/C(=N/OC)c1ccccc1COc1ccccc1OC(C)C was tested, and the Activity (Pyricularia oryzae [2]) was 90%, the Activity (Podosphaera fuliginea [24]) was 90% and the Activity [6] was <90%. For the same molecule, the Activity (Thanatephorus cucumeris [17]) was <90%, the Activity [18] was <90% and the Activity [15] was 90%. The Activity (Botrytis cinerea [8]) was <90%.
CNC(=O)/C(=N/OC)c1ccccc1COc1ccccc1C(F)(F)F was tested, and the Activity (Thanatephorus cucumeris [20]) was 90%, the Activity (Pyricularia oryzae [25]) was 90% and the Activity (Podosphaera fuliginea [10]) was 90%. The Activity [22] was 90%, the Activity [18] was 90% and the Activity [26] was 90%. It also gave an Activity (Botrytis cinerea [27]) of 90%.
In the case of CNC(=O)/C(=N/OC)c1ccccc1COc1c(Cl)cccc1Cl, the Activity (Pyricularia oryzae [2]) is reported as 90%, the Activity (Podosphaera fuliginea [24]) is reported as <90% and the Activity [16] is reported as 90%. For the same molecule, the Activity (Thanatephorus cucumeris [17]) was <90%, the Activity [18] was <90% and the Activity [19] was <90%. It also gave an Activity (Botrytis cinerea [8]) of 90%.
In the case of CNC(=O)/C(=N/OC)c1ccccc1COc1ccc(C#N)cc1, the Activity (Pyricularia oryzae [2]) is reported as <90%, the Activity (Podosphaera fuliginea [24]) is reported as <90% and the Activity [6] is reported as 90%. For the same molecule, the Activity (Thanatephorus cucumeris [17]) was <90%, the Activity [18] was 90% and the Activity [15] was 90%. The Activity (Botrytis cinerea [27]) was 90%.
In the case of CNC(=O)/C(=N/OC)c1ccccc1COc1ccc(C)c(C)c1, the Activity (Pyricularia oryzae [28]) is reported as 90%, the Activity (Podosphaera fuliginea [10]) is reported as 90% and the Activity (Botrytis cinerea [11]) is reported as 90%. For the same molecule, the Activity [22] was 90%, the Activity (Thanatephorus cucumeris [17]) was 90% and the Activity [18] was 90%. The Activity [23] was 90%.
